Literature values as cited in publication PMC4761099 (British Journal of Pharmacology, 2016).

Test system: Ob/ob mice
Conditions: leptin mutant mice, acute setting; ref Kerr et al., 2011

GIP(8-42): literature GIP fragment (Kerr et al., 2011) (SDYSIAMDKIHQQDFVNWLLAQKGKKNDWKHNITQ; Gastric inhibitory polypeptide; UniProt P09681 59-93, looked up, fragment)
antagonism of GIP(1–42) in vivo, in words: decreased insulin secretion and increased plasma glucose
